Legend:
[1] = test system: MOLM-13 cells; test: Annexin V / Propidium Iodide flow cytometry apoptosis assay in MOLM-13; type: cell-based; design: key to Excess over HSA / Excess over BLISS: excess = combination minus HSA/Bliss expected, in % apoptotic cells; conditions: for Excess over BLISS / Excess over HSA: imetelstat sodium μM: r7 50, r8 25, r9 10, r10 0
Description: AML tumor cells KG-1 (ATCC #CCL-246) and MOLM-13 (DSMZ #ACC554) were plated at a density of ˜20,000 cells per well on 96-well polystyrene U-bottom tissue culture plates (Corning catalog #353777) in RPMI-1640 (ThermoFisher catalog #11875-085) supplemented with 10% fetal bovine serum (ThermoFisher catalog #16140-089) and 1% penicillin/streptomycin antibiotic cocktail (ThermoFisher catalog 15140-122) and grown in a 37° C. incubator under humidified 5% CO2 atmosphere.
At 48 and 96 hours, cells were measured for healthy, early apoptotic and apoptotic populations with an Annexin V (interior cell membrane stain) plus Propidium Iodide (PI, DNA binding dye) flow cytometry assay kit (BioLegend catalog 640914). Annexin V detects the externalization of phosphatidylserine in apoptotic cells using recombinant annexin V conjugated to green-fluorescent FITC dye and dead cells using Propidium iodide (PI). Propidium iodide stains necrotic cells with red fluorescence. After treatment with both probes, early apoptotic cells show green fluorescence, apoptotic (dead) cells show red and green fluorescence, and live cells show little or no fluorescence. […] Cells were stained for 30 minutes at 4° C. in the dark, followed by 3× washes with PBS and suspension in FACs Stain Buffer (BD catalog 554657) prior to interrogation on a BD FACs Canto flow cytometer for forward scatter, side scatter, FITC, and PE channels. […] The percentage of apoptotic cells (double labeled) was used to calculate combination effects using both the Highest Single Agent (HSA) and Bliss additivity models (J Tang et al. Frontiers in Pharmacology. 2015; 6 (181)).
Using the HSA model, the cytotoxic effect of the combined condition (“C”) was compared to the effect generated by each of the single agent controls (“A” or “B”) for the respective dose in the combination: Excess over HSA=C−A (if A>B) or C−B (if A<B)
The Bliss model performs a similar comparison, but instead of the highest effect of single agent, the Bliss model subtracts from the combination a value equal to the sum of each single agent minus their product: Excess over Bliss=C−[(A+B)−(A*B)]
Treated cells were analyzed by Flow cytometry for Annexin V and Propidium Iodide staining as described previously. Events gated in the apoptotic population (Annexin V+/Propidium Iodide+) were used to determine synergy scores for the combination matrix. Combination data analysis was generated by the Horizon Chalice™ Analyzer Software (Horizon Discovery Group, Cambridge, UK). […] Mismatch and non-complimentary controls were not utilized in this experiment.
Combination conditions undergo isobolar analysis to generate a combination index and graphically represent the behavior of a combination with synergistic pairs falling below the isobologram and antagonistic falling above it (additive combinations would be expected to fall on the line). The Horizon Chalice™ Analyzer Software additionally provides a synergy score, with values greater than 1 indicating synergy.

[2] = test system: hTERT; test: hTERT transcription levels by RT-qPCR in KG-1; type: cell-based, human; conditions: 20 nM ABT-199, at either time point (48 or 96 hours)
Description: (§1) Samples from cell experiments (and single agent controls) were collected for molecular analyses to assess combination effects contributing to potential mechanisms of action. […] Nucleic acids were purified by first lysing cells with 350 μL of RLT Buffer (Qiagen catalog #1030963) supplemented with 2-mercaptoethanol (Sigma catalog #63689-100ML-F). RNA was purified with the AllPrep RNA/DNA Mini Kit (Qiagen catalog #80204) and reverse transcribed to cDNA using a High Capacity cDNA kit (ThermoFisher catalog #4368814) and pre-amplified prior to analysis with TaqMan PreAmp Master Mix (ThermoFisher catalog #4384557B). Products were analyzed using an in-house developed Taq-Man RT-qPCR assay to measure hTERT transcription levels (TaqMan Universal PCR Master Mix—ThermoFisher catalog #4304437; primer and probe sequences below) using a ViiA7 Real-Time PCR system from ThermoFisher: […]

[3] = test system: hTERT; test: hTERT transcription levels by RT-qPCR in MOLM-13; type: cell-based, human; conditions: MOLM-13, 96 hours; 50 μM imetelstat sodium and/or 20 nM ABT-199
Description: as §1

[4] = MOLM-13, 48 hours, ABT-199 1 nM
[5] = MOLM-13, 48 hours, ABT-199 5 nM
[6] = MOLM-13, 48 hours, ABT-199 20 nM
[7] = MOLM-13, 48 hours, ABT-199 100 nM
[8] = MOLM-13, 48 hours, ABT-199 500 nM
[9] = MOLM-13, 96 hours, ABT-199 1 nM
[10] = MOLM-13, 96 hours, ABT-199 5 nM
[11] = MOLM-13, 96 hours, ABT-199 20 nM
[12] = MOLM-13, 96 hours, ABT-199 100 nM
[13] = MOLM-13, 96 hours, ABT-199 500 nM

CC1(C)CCC(CN2CCN(c3ccc(C(=O)NS(=O)(=O)c4ccc(NCC5CCOCC5)c([N+](=O)[O-])c4)c(Oc4cnc5[nH]ccc5c4)c3)CC2)=C(c2ccc(Cl)cc2)C1 [ABT-199, 4-[4-[[2-(4-chlorophenyl)-4,4-dimethylcyclohexen-1-yl]methyl]piperazin-1-yl]-N-[3-nitro-4-(oxan-4-ylmethylamino)phenyl]sulfonyl-2-(1H-pyrrolo [2,3-b]pyridin-5-yloxy)benzamide]
Excess over BLISS [1, 4]: 0 | Excess over HSA [1, 4]: 0 | Excess over BLISS [1, 5]: 0 | Excess over HSA [1, 5]: 0 | Excess over BLISS [1, 6]: 0 | Excess over HSA [1, 6]: 0 | % apoptotic cells (double label) [1, 7]: ~19% | Excess over BLISS [1, 7]: 0 | Excess over HSA [1, 7]: 0 | % apoptotic cells (double label) [1, 8]: ~30% | Excess over BLISS [1, 8]: 0 | Excess over HSA [1, 8]: 0 | Excess over BLISS [1, 9]: 0 | Excess over HSA [1, 9]: 0 | Excess over BLISS [1, 10]: 0 | Excess over HSA [1, 10]: 0 | Excess over BLISS [1, 11]: 0 | Excess over HSA [1, 11]: 0 | Excess over BLISS [1, 12]: 0 | Excess over HSA [1, 12]: 0 | Excess over BLISS [1, 13]: 0 | Excess over HSA [1, 13]: 0 | cell death ([1]; MOLM-13, 96 hours, ABT-199 at 5, 20, 100 and 500 nM): > 30% | apoptotic activity ([1]; MOLM-13, after 48 hours, concentrations not given): 30% | hTERT RNA expression level, percentage of untreated controls [2]: 90-95% | hTERT RNA expression level, percentage of untreated controls [3]: ~69%
